Results on two compounds are retold here after PMC7334220, “Diamond Blackfan anemia is mediated by hyperactive Nemo-like kinase” (Nature Communications, 2020).

The target in one experiment is T1, NLK (Homo sapiens, UniProt Q9UBE8).
T1 construct: NLK, p38, or ALK5 for in vitro kinase assays were immunopurified from Kp53A1 cells; endogenous in cells; immunoprecipitated with anti-NLK (Abcam AB97642)
T1 sequence (Q9UBE8 1-527): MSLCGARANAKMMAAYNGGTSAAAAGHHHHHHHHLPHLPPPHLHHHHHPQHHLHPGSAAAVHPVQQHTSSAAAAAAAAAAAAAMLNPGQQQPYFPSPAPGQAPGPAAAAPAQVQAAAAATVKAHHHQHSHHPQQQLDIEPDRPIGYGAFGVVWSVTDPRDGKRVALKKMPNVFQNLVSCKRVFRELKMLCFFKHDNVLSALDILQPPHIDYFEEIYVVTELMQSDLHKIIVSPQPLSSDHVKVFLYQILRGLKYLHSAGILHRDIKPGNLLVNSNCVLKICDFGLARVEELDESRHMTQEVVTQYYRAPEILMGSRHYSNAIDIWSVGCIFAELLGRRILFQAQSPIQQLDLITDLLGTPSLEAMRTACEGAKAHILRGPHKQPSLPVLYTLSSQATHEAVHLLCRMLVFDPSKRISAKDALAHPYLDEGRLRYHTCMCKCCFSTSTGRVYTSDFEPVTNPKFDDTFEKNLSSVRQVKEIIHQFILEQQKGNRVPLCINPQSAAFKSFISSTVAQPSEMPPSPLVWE
The experiment in a line: NLK in vitro kinase assay (NLK, c-Myb, Raptor substrates). The conditions noted are these: for inhibition of NLK-mediated phosphorylation of NLK substrates NLK, c-Myb and Raptor: added to activated NLK in vitro, Supplementary Fig. 1c. The format is biochemical. The protocol: Equivalent protein was loaded between samples. b—blue Transduced progenitors were differentiated for 15 days and sorted for surface expression of CD235 + , CD41 + and CD11b + population NLK mRNA was assessed by qRT-PCR. c Control and shRPS19-transduced CB progenitors were differentiated for 10 days prior to separation into CD71^+ and CD71^- populations and assessed for pThr298-NLK phosphorylation by Western blot analysis. d—purple CB CD34 + progenitors were transduced with shRNA against luciferase (shLuc) or RPS19 (shRPS19) along with CFP-NLK and YFP-NLK and differentiated for 10 days. NLK dimerization was quantified by FRET. e—left panel NLK was immunoprecipitated from transduced differentiating CD71^+ and CD71^- populations after 10 days, and incubated in the presence of ATP, Mg^2+ and dephosphorylated NLK (i orange), c-Myb (ii—blue) and Raptor (iii—green) for 30 min at 37 °C. Phosphorylation was detected by a combination of anti^-phosphoserine-HRP and anti-phosphothreonine-HRP antibodies, or mouse anti-phosphoserine and anti-mouse-HRP antibodies. e—right panel For comparison, NLK in vitro kinase activity was assessed from CD235^+, CD41^+ and CD11b^+ populations enriched after identical treatments. f A panel of eight small molecule p38 inhibitors were titrated into in vitro kinase assays in the presence of activated NLK or p38 from stimulated Kp53A1 cells. The IC50 for NLK and p38 for each compound was calculated. The data are represented diagrammatically with IC50 values represented as vertical lines along a concentration gradient for NLK and p38. Kinase activity is represented as blue and the extent of inhibition is depicted in white. […] Bars represent means ± SD with individual data points overlaid. n = 3 independent experiments performed in triplicate.Statistics: two-tailed Student’s t test, significant *p < 0.05. Also see Supplementary Figs. 3 and 4. Source data are provided as a Source Data file. […] Inhibitors were added to cells at indicated concentrations with a final DMSO concentration of 0.5%. […] IC50 calculations were obtained using 8–9 concentrations of compound and generated using the IC50 Calculator software by AAT Bioquest®. NLK, p38, or ALK5 for in vitro kinase assays were immunopurified from Kp53A1 cells. NLK activation was induced by incubating cells at 32° for 24-48 h, p38 by stimulating with IL-3, IL-6, SCF, and Epo at the same concentrations used for differentiating erythroid progenitors.
For NLK kinase analysis, cultures were treated as indicated and lysed for 30 min at 4 °C in 750 μl of kinase lysis buffer (50 mM Tris [pH 7.4], 5 mM EDTA, 250 mM NaCl, 0.1% Triton X-100, 50 mM NaF, 0.1 trypsin inhibitor unit of aprotinin per ml, 50 μg of phenylmethylsulfonyl fluoride per ml, 100 μM sodium vanadate, 1 μg of leupeptin per ml). For TGFβR1 kinase analysis, cells were lysed in membrane kinase buffer (10 mM Tris-HCl (pH8.0), 140 mM NaCl, 300 mM KCl, 0.5% Triton X-100, and 0.5% sodium deoxycholate with complete protease inhibitor cocktail (Roche)). Extracts were clarified, and equivalent protein was incubated overnight at 4 °C with antibody (NLK: #AB97642; Abcam, TGFβR1: V22; Santa Cruz Biotechnology). Immune complexes were collected with Catch and Release® V2.0 Reversible Immunoprecipitation System and diluted in kinase buffer (25 mM Tris [pH 7.4], 10 mM MgCl2, 1 mM dithiothreitol). When cell numbers were limiting, NLK activity was amplified by adding 0.5 µg dephosphorylated NLK prior to performing kinase reaction. 50 μl of kinase buffer containing NLK or TGFβR1 sample and 5 μM ATP was incubated in the presence of biotinylated substrate (NLK, c-Myb, or Raptor for NLK and Smad2 or Smad3 for TGFβR1) immobilized on streptavidin-coated 96-well plates.

Another experiment concerns p38. The conditions noted are these: reported, no reference given; read-out: reported IC50 against p38; cited from earlier work.

Like-named read-outs stand apart in the source and are kept apart here.

Take `NC(=O)c1ccc(-c2nc(-c3ccc4c(c3)OCO4)c(-c3ccccn3)[nH]2)cc1` [SB431542]: the IC50 was 1070 nM at NLK (Supplementary Fig. 1e, read-out: IC50 against NLK) and 9000 nM in the experiment on p38. The “inhibition of NLK-mediated phosphorylation of NLK substrates NLK, c-Myb and Raptor” value at NLK came to 55%.

With `Fc1ccc(Cl)cc1-c1nc(Nc2ccncc2)c2nccnc2n1` [SD208], at NLK, the IC50 was found to be 435 nM; the “inhibition of NLK-mediated phosphorylation of NLK substrates NLK, c-Myb and Raptor” value is ~ 80%. Further, the “SD208 concentration at which NLK activation was significantly inhibited in in vitro assays” value at NLK (rebuttal letter) is on record as “below 0.1 uM”. The IC50 in the experiment on p38 is 850 nM.

As usually defined, the IC50 is the point on the concentration scale where inhibition reaches its midpoint.
